Data reported in ChEMBL document CHEMBL1201862, “PubChem BioAssay data set” (2004).
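Method: 48-hour compound exposure of cells in 96-well plates, five concentrations, linear interpolation of endpoints. GI50 is the concentration that inhibits growth by half.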 Activity calls are given as the source filed them. No stated cut-off is given here; in the data, active = GI50 up to about 1.1 µM and inactive = higher.

Columns and labels:
Test in all cases: inhibition of tumour cell growth, NCI panel, 48 h
A498 = tested on: A498
ACHN = tested on: ACHN
CAKI-1 = tested on: CAKI-1
HOP-62 = tested on: HOP-62
HT-29 = tested on: HT-29
IGROV-1 = tested on: IGROV-1
LOX IMVI = tested on: LOX IMVI
MCF7 = tested on: MCF7
OVCAR-8 = tested on: OVCAR-8
SF-268 = tested on: SF-268
SK-MEL-28 = tested on: SK-MEL-28
SK-OV-3 = tested on: SK-OV-3
SN12C = tested on: SN12C
SW-620 = tested on: SW-620
T47D = tested on: T47D
TK-10 = tested on: TK-10
UACC-62 = tested on: UACC-62
CCRF-CEM = tested on: CCRF-CEM
COLO 205 = tested on: COLO 205

| SMILES | GI50 (A498) | GI50 (ACHN) | GI50 (CAKI-1) | GI50 (HOP-62) | GI50 (HT-29) | GI50 (IGROV-1) | GI50 (LOX IMVI) | GI50 (MCF7) | GI50 (OVCAR-8) | GI50 (SF-268) | GI50 (SK-MEL-28) | GI50 (SK-OV-3) | GI50 (SN12C) | GI50 (SW-620) | GI50 (T47D) | GI50 (TK-10) | GI50 (UACC-62) | GI50 (CCRF-CEM) | GI50 (COLO 205) |
| --- | --- | --- | --- | --- | --- | --- | --- | --- | --- | --- | --- | --- | --- | --- | --- | --- | --- | --- | --- |
| CCC(=O)Nc1ncnc2ncn(C(=O)CC)c12 | > 100 µM (inactive) | > 100 µM (inactive) | > 100 µM (inactive) | > 100 µM (inactive) | > 100 µM (inactive) | > 100 µM (inactive) | > 100 µM (inactive) | > 100 µM (inactive) | > 100 µM (inactive) | > 100 µM (inactive) | > 100 µM (inactive) | > 100 µM (inactive) | > 100 µM (inactive) | > 100 µM (inactive) | > 100 µM (inactive) | > 100 µM (inactive) | > 100 µM (inactive) | – | – |
| CC(C)(C)c1cc(C(C)(C)C)c2sc(=O)oc2c1O | 13.7 µM (inactive) | 12.1 µM (inactive) | 12.4 µM (inactive) | 17 µM (inactive) | 17.4 µM (inactive) | 14.2 µM (inactive) | 14 µM (inactive) | 12.6 µM (inactive) | 16.3 µM (inactive) | 13.6 µM (inactive) | 16.3 µM (inactive) | 19.5 µM (inactive) | 12.4 µM (inactive) | – | 6.14 µM (inactive) | 11.8 µM (inactive) | – | 18.8 µM (inactive) | 18.8 µM (inactive) |
| CC(C)CCNC(=O)c1ccc(CNC(=O)/C=C/c2ccc3ccccc3c2)cc1 | > 100 µM (inactive) | > 100 µM (inactive) | > 100 µM (inactive) | > 100 µM (inactive) | – | – | > 100 µM (inactive) | > 100 µM (inactive) | > 100 µM (inactive) | > 100 µM (inactive) | > 100 µM (inactive) | > 100 µM (inactive) | > 100 µM (inactive) | > 100 µM (inactive) | > 100 µM (inactive) | – | > 100 µM (inactive) | > 10 µM (inactive) | > 100 µM (inactive) |
| O=C(CC(C(=O)c1ccsc1)c1ccccc1)c1cccs1 (stereo unspecified) | 77.6 µM (inactive) | 67.6 µM (inactive) | > 100 µM (inactive) | > 100 µM (inactive) | 69.2 µM (inactive) | > 100 µM (inactive) | – | 33 µM (inactive) | 58.1 µM (inactive) | > 100 µM (inactive) | > 100 µM (inactive) | > 100 µM (inactive) | > 100 µM (inactive) | > 100 µM (inactive) | 11.8 µM (inactive) | > 100 µM (inactive) | 24.8 µM (inactive) | 80.5 µM (inactive) | > 100 µM (inactive) |
| Cc1cc(=O)oc2cc(OCc3c(F)cccc3Cl)ccc12 | > 100 µM (inactive) | 79.8 µM (inactive) | 17.2 µM (inactive) | 13 µM (inactive) | – | 9.46 µM (inactive) | 11.5 µM (inactive) | 4.6 µM (inactive) | > 100 µM (inactive) | 21.4 µM (inactive) | > 100 µM (inactive) | – | > 100 µM (inactive) | – | 2.49 µM (inactive) | > 100 µM (inactive) | 1.12 µM (inactive) | – | – |
| NC(C(F)(F)F)(C(F)(F)F)P(=O)(Cc1ccccc1)Cc1ccccc1 | – | > 100 µM (inactive) | > 100 µM (inactive) | 83.2 µM (inactive) | > 100 µM (inactive) | > 100 µM (inactive) | > 100 µM (inactive) | > 100 µM (inactive) | > 100 µM (inactive) | 73.8 µM (inactive) | > 100 µM (inactive) | > 100 µM (inactive) | > 100 µM (inactive) | > 100 µM (inactive) | > 100 µM (inactive) | > 100 µM (inactive) | > 100 µM (inactive) | > 100 µM (inactive) | > 100 µM (inactive) |
| Cn1cnc(N2CCCC2)c(C#N)c1=O | > 100 µM (inactive) | > 100 µM (inactive) | > 100 µM (inactive) | > 100 µM (inactive) | > 100 µM (inactive) | > 100 µM (inactive) | > 100 µM (inactive) | > 100 µM (inactive) | > 100 µM (inactive) | > 100 µM (inactive) | > 100 µM (inactive) | – | > 100 µM (inactive) | > 100 µM (inactive) | > 100 µM (inactive) | > 100 µM (inactive) | > 100 µM (inactive) | > 100 µM (inactive) | > 100 µM (inactive) |
| O=C1Nc2ccccc2/C1=N/NC(=S)N1CCCCCC1 | 1.07 µM (active) | 0.824 µM (active) | 1.43 µM (inactive) | 0.242 µM (active) | 1.3 µM (inactive) | 0.187 µM (active) | 0.507 µM (active) | 1.96 µM (inactive) | 0.895 µM (active) | 0.322 µM (active) | 1.87 µM (inactive) | 1.65 µM (inactive) | 1.42 µM (inactive) | 0.594 µM (active) | 3.78 µM (inactive) | 1.8 µM (inactive) | 0.489 µM (active) | – | 1.03 µM (active) |
